# Assay results published in article PMC3094704, “S-Petasin, the Main Sesquiterpene of Petasites formosanus, Inhibits Phosphodiesterase Activity and Suppresses Ovalbumin-Induced Airway Hyperresponsiveness” (Evidence-based Complementary and Alternative Medicine : eCAM, 2011).
# Key:
# PDE4 = test: Inhibition of PDE4 activity and Lineweaver-Burk analysis; assay type: biochemical, guinea pig
# Protocol: Activities of PDE1–5, partially separated from guinea pig lungs and hearts according to the method described by Ko et al., were measured with a two-step procedure according to the method of Thompson and Appleman, using cAMP with [^3H]-cAMP or cGMP with [^3H]-cGMP as substrates. The enzyme pμreparation (25 μL) was incubated for 30 min at 37°C in a total assay volume of […] containing 50 mM Tris-HCl (pH 7.4), 3 mM MgCl2, 1 mM dithiothreitol, 0.05% BSA, 1 μM cAMP with 0.2 μCi [^3H]-cAMP as a substrate alone or in the presence of 0.1 units calmodulin with 10 μM CaCl2 or 5 μM cGMP, and 1 μM cGMP with 0.2 μCi [^3H]-cGMP as another substrate alone or in the presence of 0.1 units calmodulin with 10 μM CaCl2. In tests of enzyme inhibition, the reaction mixture contained 10 μL of vehicle or inhibitors, at various concentrations of S-petasin or selective PDE1–5 inhibitors, such as vinpocetin [22], EHNA [23], milrinone, Ro 20-1724 [25] and zaprinast, as reference drugs. The reagents and homogenate were mixed on ice, and the reaction was initiated by transferring the mixture to a water bath at 37°C. Following a 30-min incubation, the reaction was stopped by transferring the reaction vessel to a bath of boiling water for 3 min. After cooling on ice, 20 μL of a 1 mg/mL solution of C. atrox snake venom was added to the reaction mixture, and the mixture was incubated at 37°C for 10 min. Unreacted [^3H]-cAMP or [^3H]-cGMP was removed by the addition of 500 μL of a 1-in-1 Tris-HCl (40 mM) buffer suspension of Dowex resin (1 × 8-200) with incubation on ice for 30 min. Each tube was then centrifuged for 2 min at 3700 g, and 150 μL of the supernatant was removed for liquid scintillation counting. Less than 10% of the tritiated cyclic nucleotide was hydrolyzed in this assay. The total protein in each fraction used was assayed according to the method described by Bradford. The PDE activities are shown as nmol/mg/min in the Lineweaver-Burk analysis.
# [1] = system: high-affinity rolipram binding sites (HARBSs) of guinea pig brain cell membranes; test: Displacement of [3H]-rolipram (PDE4H determination)
# Protocol: When the above-described guinea pigs were sacrificed, the whole brains were removed and homogenized with a glass/Teflon homogenizer (Glas-Col, Terre Haute, IN, USA) in 10 volumes of cold medium (pH 6.5) containing 20 mM Bis-Tris, 2 mM benzamidine, 2 mM EDTA, 50 mM sodium chloride, 0.1 mM PMSF and 1 mM dithiothreitol. At 4°C, the homogenate was centrifuged at 170 g for 5 min to remove connective tissues and blood vessels. The suspended homogenate was then re-centrifuged at 40 000 g for 30 min to separate the cytosolic and particulate portions. The particulate portion was re-suspended in a suspension at a concentration of 400 mg/mL (wet weight/volume), after washing three times with homogenizing buffer. The particulate portion mainly consisted of cell membranes. The binding ability of S-petasin (3–300 μM) or Ro 20-1724 (1–10,000 nM), a reference drug, to high-affinity rolipram binding sites (HARBSs) of the membranes was determined by replacing 2 nM [^3H]-rolipram in a reaction buffer at 30°C for 1 h, according to the method described by previous investigators and modified by us. Briefly, the reaction buffer consisted of 50 mM Tris-HCl and 5 mM MgCl2 (pH 7.5). The total volume of the reaction mixture was 25 μL, consisting of 10 μL of particulate suspension, 10 μL of [^3H]-rolipram and 5 μL of S-petasin or Ro 20-1724. After 1 h, the reaction was terminated by moving the reaction vessel into crushed ice. Then the reaction mixture was transferred onto Whatman GF/B glass-fiber filters, which were soaked in a 0.3% polyethyleneimine solution in a mini-funnel. The reaction mixture was filtered by centrifuging at 90 g for 10 s, and the filtrate was collected into a 1.5 mL Eppendorf tube with a top adapted to the outlet of the mini-funnel. The filters were washed with 300 μL of reaction buffer three times each in the same way, and transferred into 2 mL of cocktail for radiation counting (total binding) using a β-scintillation counter (Beckman, Fullerton, CA, USA). Non-specific binding, which was defined in the presence of 10 μM Ro 20-1724, was subtracted from the total binding to yield the specific binding. The effective concentration (EC50) values of S-petasin and Ro 20-1724, at which a half of [^3H]-rolipram bound onto HARBSs of cell membranes was displaced, were defined as the PDE4H values, and these were related to any adverse effects, such as nausea, vomiting and gastric hypersecretion.
structure (smiles),measurement,setting,value
C=C(C)[C@@H]1C[C@@]2(C)C(=CC1=O)CC[C@@H](OC(=O)/C=C\SC)[C@@H]2C [S-Petasin],Ki,"PDE4; Lineweaver-Burk analysis, cAMP substrate, read-out: Ki on PDE isozyme 4",18.1 ± 1.7 µM
same,Mode of inhibition of PDE4 activity,"PDE4; Lineweaver-Burk analysis, S-petasin 3–30 μM, Ro 20-1724 1–10 μM",competitively inhibited
same,IC50,"PDE4; mean ± SEM (n), read-out: IC50 on PDE isozyme 4 (taken as PDE4L value)",17.5 µM
same,EC50,[1]; HARBSs of guinea pig brain cell membranes,> 300 µM
same,percentage displacement of [3H]-rolipram binding,"[1]; at the highest concentration (300 μM), 2 nM [3H]-rolipram",28.0%±5.7%
